Like-named read-outs stand apart in the source and are kept apart here.
How the values were obtained:
mice [1] = settings: female BALB/cJ mice, 6 hours after the boost dose
mice [2] = format: in vivo, BALB/cJ and C57B1/6J mice; settings: HA mRNA, dose=1 μg, day 35
in vivo = settings: C57BL/6, mouse, im

CCCCCC/C=C\CCCC(=O)OCC(O)CN1CCN(CC(O)COC(=O)CCC/C=C\CCCCCC)CCN(CC(O)COC(=O)CCC/C=C\CCCCCC)CCN(CC(O)COC(=O)CCC/C=C\CCCCCC)CCN(CC(O)COC(=O)CCC/C=C\CCCCCC)CCN(CC(O)COC(=O)CCC/C=C\CCCCCC)CC1 (stereo not drawn) [AMG1541]
fold higher serum IL-2 than in SM-102 vaccinated mice (mice [1]): 5 fold | serum cytokine levels compared with SM-102 (mice [1]; except IL-2): comparable cytokine levels | fold higher binding antibody endpoint titers than SM-102 (mice [2]; female BALB/cJ mice): 6.8 fold | fold higher binding antibody titers than SM-102 (mice [2]; female C57B1/6J mice): 5.8 fold | fold higher binding antibody endpoint titers than SM-102 (mice [2]; male BALB/cJ mice): 15.8 fold | half-life (in vivo): 3 h
